According to article PMC12274739, “Differential substrate degradation by super-degron: EGFP in wild-type mouse cells, PD-1 requires CRBN humanization” (iScience, 2025):
Like-named read-outs stand apart in the source and are kept apart here.

How the values were obtained:
[1] = test system: GL-261; assay: GL-261 orthotopic model, growth in brain by MRI; type: in vivo, mouse; conditions: Pdcd1SD/SD/CrbnI391V/I391V mice, IBR oral administration
Description: In vivo proliferation of another tumor cell line, GL-261 […], was also examined to confirm the effect of PD-1 reduction other than the MC-38 adenocarcinoma cell line.[34]
GL-261 cells were passaged one day before inoculation and resuspended in HBSS at a concentration of 1 × 10^7 cells/mL. The mice were anesthetized by intraperitoneal injection of a combination of the three drugs described in the previous section and immobilized in a stereotactic frame (RWD Life Science, US). After a midline scalp incision, a small burr hole located 2 mm to the right and 1 mm anterior to the bregma was drilled into the skull (AP:1.0 mm, ML:-2.0 mm). The syringe needle was inserted at a depth of 3.0 mm and then raised 0.4 mm to get to a depth of 2.6 mm. 2 μL of cell (2 x10^4 cells) was injected using a 10 μL syringe (Hamilton, USA) connected to a syringe pump (KD Scientific, US; injection rate: 0.5 μL/min). After injection, the needle was left in place for an additional 5 min to avoid backflow. […]
All the MR experiments were performed at the Medical Research Support Center, Graduate School of Medicine, Kyoto University, Japan. […] The respiratory rate and rectal temperature of the animals were continuously monitored using a dedicated system (Model 1025, MR-compartible Small Animal Monitoring & Gating System; SA Instruments, Inc., NY, USA) and software (PC-SAM V8.04; SA Instruments). […]

[2] = test system: EGFP-SD (C-terminal SD); type: cell-based, mouse; conditions: Crbn+/I391V mESCs (h/mCRBN), transient, 24 h
[3] = target: EGFP-SD (C-terminal SD) (Aequorea victoria, UniProt P42212, F64L/H231L/S65T); type: cell-based, mouse; conditions: transient, 24 h; for DC50: read-out: DC50, EGFP-SD

SMILES: O=C1CC[C@H](N2Cc3c(OCc4ccc(CN5CCOCC5)cc4)cccc3C2=O)C(=O)N1 [IBR, iberdomide]
- proliferation of GL-261 [1]: suppressed
- Bottom, EGFP-SD (EGFP/mCherry MFI) [2]: 0.01502
- DC50 [2]: 0.0707 nM
- bottom vs top, EGFP-SD [2]: 0.04
- Bottom, EGFP-SD (EGFP/mCherry MFI) ([3]; B6J-S1 mESCs): 0.03557
- bottom vs top, EGFP-SD ([3]; B6J-S1 mESCs): 0.10
- Bottom, EGFP-SD (EGFP/mCherry MFI) ([3]; Crbn+/+ mESCs (mCRBN)): 0.04584
- bottom vs top, EGFP-SD ([3]; Crbn+/+ mESCs (mCRBN)): 0.15
- Bottom, EGFP-SD (EGFP/mCherry MFI) ([3]; CrbnI391V/I391V mESCs (hCRBN)): 0.007275
- bottom vs top, EGFP-SD ([3]; CrbnI391V/I391V mESCs (hCRBN)): 0.03
- DC50 ([3]; B6J-S1 mESCs): 0.815 nM
- DC50 ([3]; Crbn+/+ mESCs (mCRBN)): 2.17 nM
- DC50 ([3]; CrbnI391V/I391V mESCs (hCRBN)): 0.0654 nM
